The values below come from publication PMC5560558, “Expression and functional implications of the renal apelinergic system in rodents” (PLoS ONE, 2017).

Read-outs that look alike come from different tables or passages of the source.

One experiment has as its target T1, rat APJ (Rattus norvegicus, UniProt Q9JHG3).
T1 construct: expressed in transfected cells; host or cells: CHO cells, stably transfected clonal line CHO-B78
T1 sequence (Q9JHG3 1-377): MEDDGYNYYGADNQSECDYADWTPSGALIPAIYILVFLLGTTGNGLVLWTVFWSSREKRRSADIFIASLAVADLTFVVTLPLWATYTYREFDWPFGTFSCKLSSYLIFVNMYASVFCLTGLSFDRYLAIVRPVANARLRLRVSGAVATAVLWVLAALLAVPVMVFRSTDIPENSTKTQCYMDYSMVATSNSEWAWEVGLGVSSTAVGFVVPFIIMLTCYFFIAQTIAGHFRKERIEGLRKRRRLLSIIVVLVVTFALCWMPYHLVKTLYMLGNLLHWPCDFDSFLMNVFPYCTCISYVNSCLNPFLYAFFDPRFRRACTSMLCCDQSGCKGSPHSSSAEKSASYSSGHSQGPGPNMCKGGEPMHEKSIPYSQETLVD
Description: ERK1/2 activation (ppERK1/2 immunostaining, IN Cell Analyzer) in CHO-B78 cells. The format is cell-based. Conditions: 10min at 37°C.

Experiment [1] concerns GPCR CXCR4 in cultured human umbilical vein endothelial cells. Conditions: apela stimulation or knockdown, ref [41]; cited from earlier work. The text has this: (§1) The expression of genes for one or both APJ-ligands with their receptor in the same cell, or cells expressing either ligand gene in the close proximity of APJ-expressing cells, raises the possibility of autocrine and/or paracrine actions for the apelinergic system within the heart and kidney. […] Aplnr and apelin appear to be co-localized in endothelial cell ...

The test system of experiment [2] is cardiac contractility in adult rodents and humans. The conditions noted are these: in vivo, ref [2],[20],[33],[34],[35]; cited from earlier work. From the text:
In zebrafish, apela is expressed primarily in the embryonic heart and appears to be the main APJ ligand in ...

Experiment [3] has as its system a number of tissues and cells. Set-up: method as in PMID 23943882, PMID 25936916. The conditions noted are these: ref [2],[19]; cited from earlier work. From the text:
Many questions remain to be explored. For example, does apela in its ncRNA or peptide form(s) contribute to the pathological dispositions of some cardiovascular and metabolic conditions?

In the next experiment the test system is renal APJ. The conditions noted are these: cited from earlier work. The text has this:
This depends on apela binding heterogeneous nuclear ribonucleoprotein L (hnRNPL), an inhi ... || The expression of genes for one or both APJ-ligands with their receptor in the same cell, or cells expressing either ligand gene in the close proximity of APJ-expressing cells, raises the possibility of autocrine and/or paracrine actions for the apelinergic system within the heart and kidney. […] Aplnr and apelin appear to be co-localized in endothelial cell ...

The next experiment concerns APJ. Set-up: method as in 3 sources, one per row (each row's own in cited_ref): ref [11],[12] = [11]; PMID 25995451; doi:10.1074/jbc.M115.648238; 11 Deng C , Chen H , Yang N , Feng Y , Hsueh AJW . Apela regulates fluid homeostasis by binding to the APJ receptor to activate Gi signaling . J Biol Chem . 2015; 290 : 18261 – 18268 . doi: 10.1074/j || [12]; PMID 25639753; doi:10.1038/srep08170; 12 Wang Z , Yu D , Wang M , Wang Q , Kouznetsova J , Yang R , et al Elabela-apelin receptor signaling pathway is functional in mammalian systems . Sci Rep . 2015; 5 : 8170 doi: 10.1038/srep08170 2563 ||| ref [2] = [2]; PMID 23943882; doi:10.1530/JOE-13-0227; 2 O’Carroll A-M , Lolait SJ , Harris LE , Pope GR . The apelin receptor APJ: journey from an orphan to a multifaceted regulator of homeostasis . J Endocrinol . 2013; 219 : 13 – 35 . 23943882 10.1530/ ||| ref [11] = [11]; PMID 25995451; doi:10.1074/jbc.M115.648238; 11 Deng C , Chen H , Yang N , Feng Y , Hsueh AJW . Apela regulates fluid homeostasis by binding to the APJ receptor to activate Gi signaling . J Biol Chem . 2015; 290 : 18261 – 18268 . doi: 10.1074/j. Conditions: cited from earlier work. The text has this:
APJ activation by apelin-13 may involve multiple G proteins, while some actions involving ... || A second endogenous ligand for APJ has recently been discovered. Originally annotated as a long non-coding (nc) RNA (termed Ende) expressed primarily in the definitive endoderm during mouse embryogenesis, the apela (otherwise known as elabela or toddler) gene is also translated. It encodes a predicted 54 (58 in zebrafish) amino acid precursor molecule that is highly conserved across vertebrates and is structurally distinct from the apelin prohormone. The apela precursor can be enzymatically processed into a number of biologically active proteoforms such as ... || APJ was an orphan GPCR [23, 31] until its endogenous ligand apelin was isolated from stomach extracts by ‘reverse pharmacology’ almost 20 years ago [32]. It has recently been proposed that apela, a distinct protein unrelated to apelin, and highly conserved across vertebrates, is a new endogenous ligand for APJ.

Experiment [4] deals with human embryonic stem cells (ESCs). Conditions: which did not express aplnr, ref [18]; cited from earlier work. From the text:
(§2) This depends on apela binding heterogeneous nuclear ribonucleoprotein L (hnRNPL), an inhi ...

For experiment [5] the following is noted: exogenously administered; ref [17]; cited from earlier work.
Excerpt: as §2

For a further experiment, the system named is microdissected glomeruli. Conditions: microdissected glomeruli in vitro; ref [22]; cited from earlier work.
Excerpt: as §1

A further experiment relates to collecting duct APJ. Conditions: proposed, acting on collecting duct APJ; ref [24]; cited from earlier work. The text has this: Apela mRNA transcripts appear to be more prevalent during development. They are predominantly expressed in the heart of embryonic rodents and zebrafish, and are also detected in isolated cells from the adult rat heart, and in adult rat and mouse kidney by RT-PCR. The precise renal location of apela gene expression in the kidney has not been reported. Evidence for renal apelin expression is less convincing—it appears to be sparsely distributed in tissue endothelial cells and perhaps vascular epithelial cells and glomeruli. In the rat and ...

Description for rat APJ: Chinese hamster ovary (CHO) cells were transfected with the rat aplnr cDNA (B78 [23]) as previously described [26]. Stably-transfected clonal cells were obtained by limiting dilution, and expression of aplnr was determined by Northern dot blots using two ^32P-dATP-labelled 48bp oligonucleotide specific for the rat aplnr sequence (B78A and B78B [23]; see ISHH below). The highest aplnr-expressing cell clones were expanded for use, and one line (CHO-B78) was used for branched-chain in situ hybridization histochemistry and ERK signal transduction assays (see below).
The nuclear and cytoplasmic fluorescence intensities in individual cells were quantified (in arbitrary units)—data was normalized to vehicle controls after subtraction of ‘no primary antibody’ backgrounds. In each experiment the data (nuclear + cytoplasmic ppERK measurements) is mean ± SEM, n = 6 (approx 1200 cells imaged from 3 wells of a 96-well plate; experiments repeated twice).
IN Cell Analyser 1000 experiments were performed in triplicate wells, with experiments performed at least 2 times. Statistical analysis was with a one-way ANOVA and post hoc Dunnett’s test with GraphPad Prism software (version 4.0b). p<0.05 was considered as statistically significant.
Cells were treated for 10min at 37°C with the indicated concentration of ligands. […]

For orientation: EC50 means the concentration giving half of the maximal effect. For “apela-32: rat apela-32 (cyclized, pyroglutamated; Severn Biotech, U.K.) (EKSVNFPRRRKLYRHNCFRRRCISLHSRVPFP; not fully specified; N-terminal pyroglutamate (from Gln1 of the mature peptide))”, the EC50 with rat APJ (CHO-B78 cells stably transfected with rat aplnr, 0.01-1000nM ligand, serum-starved O/N (0.1% foetal calf serum), whole-cell (nuclear + cytoplasmic) ppERK immunofluorescence, averaged from two separate experiments, triplicate wells, read-out: EC50 for ERK activation) turned out to be 15.9 nM.

In the case of “apela: second endogenous ligand for APJ; gene encodes a predicted 54 amino acid precursor molecule”, in [1], the “effect on CXCR4 expression” value was “no effect”. Further, the “effect on cardiac contractility” value in experiment [2] was “increase cardiac contractility”. Moreover, the anti-apoptotic activity result in [3] was “anti-apoptotic activity”. Further, in the experiment with rat APJ (CHO-B78 cells, rat APJ, one-way ANOVA with post hoc Dunnett's test vs vehicle (basal)), the “ERK activation (stimulation vs basal)” value was “activates signal transduction pathways (ERK activation) in cells expressing the cloned rat APJ”. Further, in the experiment on renal APJ (exogenously administered, ref [11]), the effect on diuresis entry is “promotes diuresis”. Also, the “ERK activation in APJ-expressing cells” value with APJ (in vitro, previous studies confirmed by this paper, ref [11]) was “stimulates ERK activation in APJ-expressing cells in vitro”. Moreover, in [4], the PI3K/Akt pathway activation entry was “activates the PI3K/Akt pathway” and the effect on apoptosis result is reported as “anti-apoptotic”. Moreover, the “effect on food intake” value in experiment [5] was “anorexigenic”.

Turning to apelin, the “effect on cardiac contractility” value in experiment [2] was “increase cardiac contractility”. In experiment [3], the anti-apoptotic activity entry was “anti-apoptotic activity”. In the experiment on APJ (often G protein-dependent, ref [2]), the “signal transduction pathways activated on binding APJ” value was “inhibition of adenylate cyclase, stimulation of MAP kinase (ERK) phosphorylation, Akt phosphorylation that could contribute to neuroprotection, and enhancing nitric oxide synthase activity”.

On to apelin-17, for which, in the experiment on microdissected glomeruli, the “effect on haemodynamic function in glomeruli” value is recorded as “effects haemodynamic function in microdissected glomeruli in vitro”. Besides, in the experiment with collecting duct APJ, the “effect on antidiuretic action of arginine vasopressin” value is listed as “counteracts the antidiuretic effect of arginine vasopressin”. In addition, the effect on diuresis entry in the experiment on renal APJ (intravenous, ref [22]) is given as “causes diuresis”.
